pIC50: −log10 of the molar value. Read-outs that look alike come from different tables or passages of the source.

In this test the target is human P2X7 receptor (Homo sapiens, UniProt Q99572, R270H/Y155H). Briefly: Evaluation of human P2X7 receptor inhibitory activity (Yo-Pro uptake, BzATP stimulation, FLIPR TETRA). It is filed as cell-based. In a few lines: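 1321N1 cells stably expressing human P2X7 (T606C/G952A SNP variant), in HBSS buffer pH 7.4-7.5 with Yo-Pro, stimulated with BzATP; compound added 8 min after agonist. Fluorescence followed for 20 min on FLIPR; max-minus-min change gave % inhibition, IC50 by logistic fit.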

Setting [1] is: antagonistic activity for the human P2X7 receptor, read-out: IC50.
The mark [2] stands for this setting: 1321N1 cells stably expressing human P2X7 receptor, BzATP stimulation, Yo-Pro uptake, read-out: IC50 (antagonistic activity for the human P2X7 receptor), class symbol.
Setting [3] is: 1321N1 cells stably expressing human P2X7 receptor, BzATP stimulation, Yo-Pro uptake, read-out: IC50 (antagonistic activity for the human P2X7 receptor).

Usually pIC50 stands for the negative decadic logarithm of the IC50, by convention in mol/L. Take `COc1cn(Cc2cc(F)c(F)c(F)c2)c(Nc2ccc3c(c2C)COC3)nc1=O` [Compound I-0911]: the pIC50 under setting [1] is 7.00 to 8.00.
Same read-out and setting: for `COc1ccc(Nc2nc(=O)c(F)cn2Cc2cc(F)c(F)c(F)c2)c(C)n1` [Compound I-1036] the value was 7.00 to 8.00.
On the same count and under the same terms, as for `Cc1cc(N2CCOCC2)ccc1Nc1nc(=O)c(C)cn1Cc1cc(F)c(F)c(F)c1` [Compound I-1132], the figure is 7.00 to 8.00.
For `COc1cn(Cc2ccccc2)c(Nc2cc(C)c(C)cc2C)nc1=O` [Compound I-0124], the pIC50 under setting [2] was over 8.00.
Turning to `COc1ccc(C)c(Nc2nc(=O)c(C(=O)O)nn2Cc2cc(F)c(F)c(F)c2)c1` [Compound I-1249], the pIC50 under setting [1] is 7.00 to 8.00.
Consider `COc1cn(Cc2ccccc2)c(NC2CCc3ccccc32)nc1=O` (stereo not drawn) [Compound I-0073], for which the pIC50 under setting [2] was 6.00 to 6.30.
Regarding `COc1cc(C)c(Nc2nc(=O)c(OC)cn2Cc2cccc(Cl)c2)cc1C` [Compound I-0250], under setting [2], the pIC50 was over 8.00.
On to `Cc1cc(Nc2nc(=O)c(F)cn2Cc2cc(F)c(F)c(F)c2)c(C)cc1Cl` [Compound I-1207], for which the pIC50 under setting [1] is over 8.00.
For `COc1cn(Cc2ccc(F)c(F)c2)c(Nc2cccc(Cl)c2C)nc1=O` [Compound I-0222], the pIC50 under setting [2] is over 8.00.
The same measure, in the same setting: as for `COc1cn(Cc2ccccc2)c(NCc2c(C)cccc2C)nc1=O` [Compound I-0131], the figure is 6.30 to 7.00.
As to `Cc1cc2c(cc1Nc1nc(=O)c(F)cn1Cc1cc(F)c(F)c(F)c1)CCO2` [Compound I-1046], under setting [1], the pIC50 was over 8.00.
In the case of `Cc1c(Nc2nc(=O)c(F)cn2Cc2cc(F)c(F)c(F)c2)ccc2[nH]ccc12` [Compound I-1120], under setting [1], the pIC50 was over 8.00.
On the same count and under the same terms, as for `Cc1ccc(OCCO)cc1Nc1nc(=O)c(F)cn1Cc1cc(F)c(F)c(F)c1` [Compound I-1205], the figure is over 8.00; as for `COc1cn(Cc2cc(F)cc(Cl)c2)c(Nc2cccc3c(=O)n(C)ccc23)nc1=O` [Compound I-0904], 7.00 to 8.00.
On to `Cc1c(Cl)cccc1Nc1nc(=O)c(CC(=O)O)cn1Cc1ccccc1` [Compound I-0025], for which the pIC50 under setting [2] was 6.00 to 6.30.
On to `COc1cn(Cc2ccc(F)c(Cl)c2)c(Nc2ccc3c(c2C)COC3)nc1=O` [Compound I-0907], for which, under setting [1], the pIC50 was over 8.00.
On to `COc1cn(Cc2ccc(Cl)cc2)c(Nc2cccc(Cl)c2C)nc1=O` [Compound I-0127], for which the pIC50 under setting [2] is 7.00 to 8.00.
For `Cc1cc(OC(F)F)c(C)cc1Nc1nc(=O)c(Cl)cn1Cc1ccc(F)c(Cl)c1` [Compound I-0837], the pIC50 under setting [1] was over 8.00.
On to `COc1cn(Cc2ccc(F)cc2F)c(Nc2cccc(Cl)c2C)nc1=O` [Compound I-0329], for which the pIC50 under setting [2] is 7.00 to 8.00.
For `COc1cc(C)c(Nc2nc(=O)c(Cl)cn2Cc2cccc(Cl)c2)cc1OC` [Compound I-0346], the pIC50 under setting [2] was over 8.00.
`COc1cn(Cc2ccc(F)c(Cl)c2)c(Nc2cc(C)c(OCC(F)(F)F)cc2C)nc1=O` [Compound I-0807]: under setting [1], the pIC50 was 7.00 to 8.00.
On the same count and under the same terms, as for `COc1cn(Cc2ccccc2)c(Nc2cc3ncccc3cc2C)nc1=O` [Compound I-0770], the figure is 6.30 to 7.00.
Still for that read-out and setting: as for `Cc1ccc(-c2cscn2)cc1Nc1nc(=O)c(F)cn1Cc1cc(F)cc(F)c1` [Compound I-0867], the figure is over 8.00.
Turning to `COc1cn(Cc2ccc(F)c(Cl)c2)c(Nc2cccc(C)c2Cl)nc1=O` [Compound I-0483], the pIC50 under setting [2] is over 8.00.
In the case of `COc1cn(Cc2ccc(F)cc2)c(Nc2cc3sc(C)nc3cc2C)nc1=O` [Compound I-0561], under setting [3], the pIC50 is 7.72.
On to `CCOC(=O)c1cn(Cc2ccccc2)c(Nc2cc(C)c(C)cc2C)nc1=O` [Compound I-0196], for which, under setting [3], the negative-log IC50 (pIC50) was 7.89.
Take `CCc1cc(OC)ccc1Nc1nc(=O)c(OC)cn1Cc1cc(F)cc(F)c1` [Compound I-0440]: the pIC50 under setting [2] is over 8.00.
Regarding `COc1cn(Cc2ccc(F)c(Cl)c2)c(Nc2cc3c(cc2C)OC(F)(F)O3)nc1=O` [Compound I-0727], under setting [1], the negative logarithm of the IC50 (pIC50) is 6.30 to 7.00.
With `COc1cn(Cc2ccc(F)c(Cl)c2)c(Nc2cc3c(cc2C)OCCC3)nc1=O` [Compound I-0914], under setting [3], the pIC50 is 7.66.
On to `COc1cn(Cc2ccccc2)c(Nc2cc(N3CCCC3=O)ccc2C)nc1=O` [Compound I-0393], for which, under setting [2], the pIC50 was 7.00 to 8.00.
The same measure, in the same setting: as for `COc1cn(Cc2ccccc2)c(Nc2cc(F)ccc2C)nc1=O` [Compound I-0090], the figure is 6.30 to 7.00; as for `COc1cn(Cc2ccccc2)c(Nc2ccc(Cl)cc2Cl)nc1=O` [Compound I-0071], 6.30 to 7.00.
The same measure, in the same setting: as for `COCc1ccccc1Nc1nc(=O)c(OC)cn1Cc1ccc(F)c(Cl)c1` [Compound I-0356], the figure is 6.30 to 7.00.
With `COc1cccc(Nc2nc(=O)c(OC)cn2Cc2cc(F)cc(F)c2)c1C` [Compound I-0438], the pIC50 under setting [2] was over 8.00.
On the same count and under the same terms, for `CCc1ccc(OC)cc1Nc1nc(=O)c(OC)cn1Cc1cccc(F)c1` [Compound I-0251] the value was 7.00 to 8.00.
For the compound `COc1ccc(Nc2nc(=O)c(F)cn2Cc2ccc(F)c(F)c2)c(C)c1` [Compound I-0841], under setting [1], the negative-log IC50 (pIC50) was over 8.00.
On to `COc1cn(Cc2cc(F)cc(F)c2)c(Nc2cc(N3CCCC3=O)ccc2C)nc1=O` [Compound I-0648], for which the pIC50 under setting [1] is 7.00 to 8.00.
In the case of `Cc1cc(CO)ccc1Nc1nc(=O)c(F)cn1Cc1cc(F)c(F)c(F)c1` [Compound I-1236], under setting [1], the pIC50 is over 8.00.
As for `COc1cc(C)c(Nc2nc(=O)c(OC)cn2Cc2ccc(F)cc2)cc1OC` [Compound I-0275], the pIC50 under setting [2] is 7.00 to 8.00.
For the compound `COc1cc(Nc2nc(=O)cnn2Cc2cc(F)c(F)c(F)c2)c(C)cc1Cl` [Compound I-1279], under setting [1], the negative-log IC50 (pIC50) was over 8.00.
Take `CCc1c(Nc2nc(=O)c(OC)cn2Cc2ccccc2)cccc1OC` [Compound I-0212]: the negative-log IC50 (pIC50) under setting [2] was over 8.00.
In the case of `CCOc1cc(C)c(Nc2nc(=O)c(F)cn2Cc2cc(F)cc(F)c2)cc1F` [Compound I-1061], under setting [1], the pIC50 is 7.00 to 8.00.
Take `COc1cc(C)c(Nc2nc(=O)c(OC)cn2Cc2cccc(Cl)c2)cc1Cl` [Compound I-0671]: the pIC50 under setting [1] is over 8.00.
Regarding `COc1cn(Cc2ccccc2)c(Nc2cc(C(N)=O)ccc2Cl)nc1=O` [Compound I-0181], under setting [2], the pIC50 was 6.00 to 6.30.
With `COc1cc(Nc2nc(=O)c(F)cn2Cc2cc(F)c(F)c(F)c2)c(C)cc1Cl` [Compound I-1006], under setting [1], the pIC50 is over 8.00.
For the compound `COc1cn(Cc2ccc(F)c(Cl)c2)c(Nc2cc(S(C)(=O)=O)cc(C)c2C)nc1=O` [Compound I-0755], the pIC50 under setting [3] was 7.92.
Regarding `COc1cn(Cc2ccc(F)c(Cl)c2)c(Nc2cc(OC(F)(F)F)ccc2C)nc1=O` [Compound I-0692], the negative logarithm of the IC50 (pIC50) under setting [1] was 7.00 to 8.00.
Take `COc1cc(C)c(Nc2nc(=O)c(OC)cn2Cc2cc(F)c(F)c(F)c2)cc1F` [Compound I-0804]: the pIC50 under setting [1] was over 8.00.
With `COc1cn(Cc2cc(F)cc(F)c2)c(Nc2cc(Cl)cc3[nH]ccc23)nc1=O` [Compound I-0822], under setting [1], the negative-log IC50 (pIC50) is 7.00 to 8.00.
On to `COc1cn(CCc2ccccc2)c(Nc2cccc(Cl)c2C)nc1=O` [Compound I-0008], for which, under setting [3], the pIC50 was 7.43.
For `COc1cn(Cc2cc(F)cc(F)c2)c(Nc2cc(-c3ccc(C)o3)ccc2C)nc1=O` [Compound I-0769], the pIC50 under setting [1] was 7.00 to 8.00.
Consider `COc1cn(Cc2ccccc2)c(Nc2cc(OC3CC3)ccc2C)nc1=O` [Compound I-0888], for which the pIC50 under setting [1] is 7.00 to 8.00.
In the case of `Cc1ccc(-c2ncco2)cc1Nc1nc(=O)c(F)cn1Cc1ccc(F)c(F)c1` [Compound I-0850], the negative logarithm of the IC50 (pIC50) under setting [1] is over 8.00.
Same read-out and setting: as for `COc1cn(Cc2ccccc2)c(Nc2cc(Cl)cc3[nH]ccc23)nc1=O` [Compound I-0818], the figure is 7.00 to 8.00.
For the compound `COCc1cccc(Nc2nc(=O)c(OC)cn2Cc2ccc(F)c(Cl)c2)c1C` [Compound I-0353], under setting [2], the pIC50 was 7.00 to 8.00.
Regarding `Cc1ccc(-c2ncco2)cc1Nc1nc(=O)c(F)cn1Cc1cc(F)cc(F)c1` [Compound I-0851], under setting [1], the pIC50 was over 8.00.
For the compound `COc1cn(Cc2ccc(F)c(Cl)c2)c(Nc2cc(CO)c(C)cc2C)nc1=O` [Compound I-0247], the negative-log IC50 (pIC50) under setting [2] is over 8.00.
Regarding `COc1cn(Cc2cccc(Cl)c2)c(Nc2ccc(C)cc2C)nc1=O` [Compound I-0374], the pIC50 under setting [2] is 7.00 to 8.00.
For `COc1cn(Cc2ccccc2)c(N[C@@H]2CCc3ccccc32)nc1=O` [Compound I-0201], under setting [2], the pIC50 is 6.00 to 6.30.
Same read-out and setting: as for `COc1cn(Cc2cccc(F)c2)c(Nc2cc(C)c(C)cc2C)nc1=O` [Compound I-0177], the figure is over 8.00.
Still for that read-out and setting: for `COc1cc(C)c(Nc2nc(=O)c(F)cn2Cc2ccc(F)cc2)cc1C` [Compound I-0319] the value was over 8.00; for `COc1cc(C)c(Nc2nc(=O)c(F)cn2Cc2cccc(Cl)c2)cc1OC` [Compound I-0308], over 8.00.
On the same count and under the same terms, as for `CCc1ccc(OC)cc1Nc1nc(=O)c(OC)cn1Cc1cccc(Cl)c1` [Compound I-0254], the figure is 7.00 to 8.00.
`CCOc1ccc(C)c(Nc2nc(=O)c(F)cn2Cc2cc(F)c(F)c(F)c2)c1` [Compound I-1007]: the pIC50 under setting [1] is over 8.00.
Take `Cc1cc(C)c(Nc2nc(=O)c(Br)cn2Cc2cc(F)cc(F)c2)cc1C` [Compound I-1113]: the pIC50 under setting [1] was over 8.00.
`COc1cn(Cc2cc(F)cc(F)c2)c(Nc2cc(-c3ncco3)ccc2C)nc1=O` [Compound I-0554]: the pIC50 under setting [2] was 7.00 to 8.00.
The same measure, in the same setting: as for `COc1cc(C)c(Nc2nc(=O)c(F)cn2Cc2ccccc2)cc1OC` [Compound I-0183], the figure is 7.00 to 8.00.
Regarding `Cc1nc2cc(Cl)c(Nc3nc(=O)c(F)cn3Cc3cc(F)cc(F)c3)cc2o1` [Compound I-1075], under setting [1], the negative-log IC50 (pIC50) was over 8.00.
As for `Cc1ccc(CO)cc1Nc1nc(=O)c(F)cn1Cc1cc(F)cc(F)c1` [Compound I-1014], the pIC50 under setting [1] is over 8.00.
On to `COc1ccc(Nc2nc(=O)c(OC)cn2Cc2cc(F)cc(F)c2)c(C)c1` [Compound I-0538], for which the negative logarithm of the IC50 (pIC50) under setting [2] is 7.00 to 8.00.
`COc1cc(Nc2nc(=O)c(OC)cn2Cc2ccc(F)c(Cl)c2)c(C)cc1C` [Compound I-0586]: the pIC50 under setting [1] was over 8.00.
For `COCc1cn(Cc2cc(F)c(F)c(F)c2)c(Nc2cc3sc(C)nc3cc2C)nc1=O` [Compound I-1141], the pIC50 under setting [1] is 7.00 to 8.00.
